Legend:
[1] = target: T1, Peroxisome proliferator-activated receptor delta (Homo sapiens, UniProt Q03181); test: Transactivation of GAL4-fused PPARbeta LBD expressed in HepG2 cells after 20 hrs by luminescence assay; format: cell-based
T1 sequence (Q03181 whole entry): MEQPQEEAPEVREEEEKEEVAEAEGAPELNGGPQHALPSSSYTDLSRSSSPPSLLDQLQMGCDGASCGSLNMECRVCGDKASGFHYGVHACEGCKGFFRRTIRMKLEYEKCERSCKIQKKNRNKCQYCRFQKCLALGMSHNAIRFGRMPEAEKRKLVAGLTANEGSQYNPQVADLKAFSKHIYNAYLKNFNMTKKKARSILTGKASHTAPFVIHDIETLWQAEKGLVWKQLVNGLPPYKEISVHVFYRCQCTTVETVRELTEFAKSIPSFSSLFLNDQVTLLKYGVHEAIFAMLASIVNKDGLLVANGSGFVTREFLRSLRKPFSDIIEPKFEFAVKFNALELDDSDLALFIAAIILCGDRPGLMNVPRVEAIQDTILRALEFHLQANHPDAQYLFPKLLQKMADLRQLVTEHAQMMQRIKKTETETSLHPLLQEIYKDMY

[2] = (§1) Transactivation of PPAR expressed in HepG2 cells after 20 hrs by luminescence assay; format: cell-based; conditions: HepG2, 20 h
[3] = target: T2, Peroxisome proliferator-activated receptor alpha (Homo sapiens, UniProt Q07869); test: (§2) Transactivation of GAL4-fused PPARalpha LBD expressed in HepG2 cells after 20 hrs by luminescence assay; format: cell-based
T2 sequence (Q07869 whole entry): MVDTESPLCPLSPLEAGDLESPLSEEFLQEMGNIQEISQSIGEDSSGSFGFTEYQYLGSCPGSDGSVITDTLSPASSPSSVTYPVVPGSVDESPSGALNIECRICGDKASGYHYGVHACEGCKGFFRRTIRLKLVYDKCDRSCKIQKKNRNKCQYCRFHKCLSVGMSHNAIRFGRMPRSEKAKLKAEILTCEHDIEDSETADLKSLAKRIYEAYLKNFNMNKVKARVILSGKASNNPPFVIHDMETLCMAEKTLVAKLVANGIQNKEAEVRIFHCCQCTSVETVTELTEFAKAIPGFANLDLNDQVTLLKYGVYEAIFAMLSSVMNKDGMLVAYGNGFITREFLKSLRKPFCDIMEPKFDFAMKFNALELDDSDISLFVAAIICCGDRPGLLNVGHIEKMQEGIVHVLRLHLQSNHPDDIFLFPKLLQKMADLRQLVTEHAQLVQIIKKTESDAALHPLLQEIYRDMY

[4] = target: T3, Peroxisome proliferator-activated receptor gamma (Homo sapiens, UniProt P37231); test: Transactivation of GAL4-fused PPARgamma LBD expressed in HepG2 cells after 20 hrs by luminescence assay; format: cell-based
T3 sequence (P37231 whole entry): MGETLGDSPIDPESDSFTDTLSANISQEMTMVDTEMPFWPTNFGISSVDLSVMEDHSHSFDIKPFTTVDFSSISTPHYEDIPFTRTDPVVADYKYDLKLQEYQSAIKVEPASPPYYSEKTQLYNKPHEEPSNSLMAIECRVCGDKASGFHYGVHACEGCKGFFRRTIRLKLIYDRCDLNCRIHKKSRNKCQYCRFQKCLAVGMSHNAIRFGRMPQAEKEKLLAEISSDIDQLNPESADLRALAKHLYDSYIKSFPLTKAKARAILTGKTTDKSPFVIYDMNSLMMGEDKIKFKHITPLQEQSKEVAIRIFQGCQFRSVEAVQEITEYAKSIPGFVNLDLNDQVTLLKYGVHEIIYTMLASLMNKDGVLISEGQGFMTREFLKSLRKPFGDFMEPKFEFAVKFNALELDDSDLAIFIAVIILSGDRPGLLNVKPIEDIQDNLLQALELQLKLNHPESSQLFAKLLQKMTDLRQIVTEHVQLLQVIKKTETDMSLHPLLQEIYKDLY

HepG2 [5] = test: Cytotoxicity against human HepG2 cells by MTT assay; format: cell-based
[6] = target: T4, Peroxisome proliferator-activated receptor alpha (Homo sapiens) (UniProt Q07869); test: as §2; format: cell-based
T4 sequence (whole entry): T2 sequence (Q07869 whole entry)

[7] = Inhibition of TNFalpha-induced NFkappaB transcriptional activity in human HepG2 cells pretreated for 1 hr before TNFalpha challenge by luciferase reporter gene analysis
HepG2 [8] = test: Inhibition of NFkappaB-mediated iNOS mRNA expression in human TNFalpha-stimulated human HepG2 cells pretreated for 1 hr before TNFalpha challenge measured after 6 hrs by RT-PCR analysis; format: cell-based
HepG2 [9] = test: Inhibition of NFkappaB-mediated COX2 mRNA expression in human TNFalpha-stimulated human HepG2 cells by RT-PCR analysis; format: cell-based
HepG2 [10] = test: as §1; format: cell-based

SMILES	EC50 [1] [µM]	EC50 [2] [µM]	EC50 [3] [µM]	EC50 [4] [µM]	Activity (HepG2 [5])	Activity [6]	IC50 [7] [µM]	inhibition (HepG2 [8])	inhibition (HepG2 [9])	Activity (HepG2 [10])
CCCc1c(OCCCOc2ccc(OCC(=O)O)cc2)ccc(C(C)=O)c1O	0.64									
COc1cc([C@H]2OC[C@H]3[C@@H]2CO[C@H]3c2ccc3c(c2)OCO3)cc(OC)c1O	47.6	6.2	> 60	22.6	Non-toxic					
CC(C)(O)C1=C[C@@H](O)[C@@](C)(O)CC1	48.5	4.3	19.5	21.7	Non-toxic	Dose-dependent effect				
COc1ccc([C@@H](O)[C@H](O)CO)cc1OC	22.6	20.3	15.7	19.3	Non-toxic	Dose-dependent effect				
C/C=C\CC/C=C/C=C/C(=O)NCC(C)C	4.9	2	4	3.6	Non-toxic	Dose-dependent effect				
CC=C/C=C\CC/C=C/C=C/C(=O)NCC(C)C	51.1	58.6	46.1	52.3	Non-toxic		6.4	Dose-dependent effect	Dose-dependent effect	
CC1=CC(=O)C2C(C1=O)C2(C)C (racemic)		> 60			Non-toxic					
c1cc2c(cc1[C@H]1OC[C@H]3[C@@H]1CO[C@H]3c1ccc3c(c1)OCO3)OCO2 [ASARININ]		> 60			Non-toxic		7.1	Dose-dependent effect	Dose-dependent effect	
CC(C)(Oc1ccc(CCNC(=O)c2ccc(Cl)cc2)cc1)C(=O)O [BEZAFIBRATE]		1.05								
CC(C)(Oc1ccc(C2CC2(Cl)Cl)cc1)C(=O)O (stereo not drawn) [CIPROFIBRATE]			0.9							
C=CCc1ccc(OC)c(OC)c1 [METHYLEUGENOL]	50.6	28	46.5	40	Non-toxic					
COc1cc([C@H]2OC[C@H]3[C@@H]2CO[C@H]3c2ccc(O)c(OC)c2)ccc1O [PINORESINOL]	49.5	10.3	> 60	58.6	Non-toxic					Dose-dependent effect
COc1cc([C@@H]2OC[C@@H]3[C@H]2CO[C@H]3c2ccc3c(c2)OCO3)ccc1O [PIPERITOL]	33.9	20.9	53.2	18.9	Non-toxic					
COc1cc([C@H]2OC[C@@H]3[C@H]2CO[C@H]3c2ccc3c(c2)OCO3)ccc1O [PLUVIATILOL]	53.1	1.7	> 60	48.7	Non-toxic					
c1cc2c(cc1[C@H]1OC[C@H]3[C@@H]1CO[C@@H]3c1ccc3c(c1)OCO3)OCO2 [SESAMIN]		> 60			Non-toxic		9.4	Dose-dependent effect	Dose-dependent effect	
O=C(O)c1cc(/N=N/c2ccc(S(=O)(=O)Nc3ccccn3)cc2)ccc1O [SULFASALAZINE]							0.9			
